The values that follow come from ChEMBL document CHEMBL4483862, “Open-source discovery of chemical leads for next-generation chemoprotective antimalarials” (2018).

SMILES strings stand for the structures.

For this experiment, the system named is Plasmodium berghei. Briefly: Luciferase/luciferin-expressing antifolate-resistant parasites were used to infect a culture of HepG2 cells that were pre-incubated with compounds. Infected hepatocytes emit light due to the luciferase reaction. Assay results are presented as the percent inhibition of light emission compared to control. […]. It counts as functional. The conditions noted are these: sporozoite; for IC90: read-out: LUCIFERASE INFECTION ASSAY - IC90.

Setting [1] is: read-out: LUCIFERASE INFECTION ASSAY - IC50.

For `CC(C)(C)OC(=O)N1CCc2nc(NC(=O)c3ccc4nc[nH]c4c3)sc2C1`, the IC90 (usually the point of the concentration-response curve where the effect stands at 90%) is more than 10 µM. For the same molecule, under “HEPG2TOX_HILL_SLOPE 6.67, HEPG2TOX_R_SQUARED 0.917, read-out: LUCIFERASE INFECTION ASSAY - IC50”, the concentration for half-maximal inhibition (IC50) (in general, the point on the concentration scale where inhibition reaches its midpoint) was more than 10 µM.
`CC(OC(=O)c1ccccc1Nc1ccc(F)cc1)C(=O)N1CCCC1` (configuration not stated): the 90% effect concentration (IC90) was found to be 9.97 µM. The concentration for half-maximal inhibition (IC50) (PBLUC_HILL_SLOPE 20.8, 17.7, PBLUC_R_SQUARED 0.125, 0.439, read-out: LUCIFERASE INFECTION ASSAY - IC50) is 8.95 µM.
As to `Cc1ccc(-c2ccccc2C(=O)OCC(=O)Nc2ccc(C)c(Cl)c2)cc1`, the IC90 is more than 10 µM. The IC50 (FFLUC_HILL_SLOPE 49.8, FFLUC_R_SQUARED 0.336, read-out: LUCIFERASE INFECTION ASSAY - IC50) is more than 10 µM.
For the molecule `COc1ccc(CC(N)c2csc(NC(=O)c3cc(C(C)(C)C)nn3Cc3ccccc3)n2)cc1` (configuration not stated), the IC90 turned out to be 5.64 µM. For the same molecule, where the note is “HEPG2TOX_HILL_SLOPE 1.31, HEPG2TOX_R_SQUARED 0.716, PBLUC_HILL_SLOPE 7.57, PBLUC_R_SQUARED 0.705, read-out: LUCIFERASE INFECTION ASSAY - IC50”, the concentration for half-maximal inhibition (IC50) came out at 4.22 µM.
On to `COc1ccc(OC)c(CCNc2nc3cnc(-c4cccc(Oc5ccccc5)c4)cc3n2C)c1`, for which the IC90 is 1.51 µM. For the same molecule, the concentration for half-maximal inhibition (IC50) under setting [1] stood at 0.52 µM.
The corresponding values for `COc1cc2c(cc1OC)C(c1ccccc1)N(C(=O)/C=C/c1ccsc1)CC2` (configuration not stated) are more than 10 µM and more than 10 µM.
Taken in the same sequence, the figures for `Nc1ncc(-c2cc(C(F)(F)F)cc(C(F)(F)F)c2)cc1-c1ccc(O)cc1` were more than 8.29 µM and more than 8.29 µM.
Turning to `C=C(C)C(=O)Oc1ccc(Oc2c(F)c(F)c(-c3c(F)c(F)c(Oc4ccc(OC(=O)C(=C)C)cc4)c(F)c3F)c(F)c2F)cc1`, the IC90 is more than 10 µM. Under setting [1], the IC50 was more than 10 µM.
In the case of `Clc1ccccc1CN(Cc1nc2ccccc2[nH]1)Cc1nc2ccccc2[nH]1`, the IC90 is 4.32 µM. The IC50 (FFLUC_HILL_SLOPE 12.2, FFLUC_R_SQUARED 0.134, HEPG2TOX_HILL_SLOPE 11.4, HEPG2TOX_R_SQUARED 0.932, PBLUC_HILL_SLOPE 13.3, PBLUC_R_SQUARED 0.326, read-out: LUCIFERASE INFECTION ASSAY - IC50) was determined as 3.67 µM.
In the case of `CC1CN(S(=O)(=O)NCC(c2ccccc2Cl)c2c[nH]c3ccccc23)CC(C)O1` (configuration not stated), the IC90 is more than 10 µM. Moreover, under setting [1], the IC50 is more than 10 µM.
As for `CC(OC(=O)c1cccc(-n2cccc2)c1)C(=O)N1CCCC1` (configuration not stated), the IC90 turned out to be 8.03 µM. For the same molecule, the IC50 (PBLUC_HILL_SLOPE 4.03, PBLUC_R_SQUARED 0.34, read-out: LUCIFERASE INFECTION ASSAY - IC50) is 4.65 µM.
As for `CCCCNC(=O)c1c(NC(=O)c2ccc(F)cc2F)nc2ccc(C)cn12`, the concentration for an effect of 90% (IC90) was determined as 3.01 µM. Besides, where the note is “FFLUC_HILL_SLOPE 10.6, FFLUC_R_SQUARED 0.36, HEPG2TOX_HILL_SLOPE 2.09, HEPG2TOX_R_SQUARED 0.949, PBLUC_HILL_SLOPE 14.8, PBLUC_R_SQUARED 0.468, read-out: LUCIFERASE INFECTION ASSAY - IC50”, the IC50 came out at 2.6 µM.
For `COc1cc(-c2nc3ccc(NC(=O)c4c(C)noc4C)cn3n2)cc(OC)c1OC`, the IC90 is more than 10 µM. Moreover, the IC50 under setting [1] was more than 10 µM.
`CNc1nc2cnc(Nc3cccc(OC(F)(F)F)c3)cc2n1CCOC`: the IC90 is more than 10 µM. For the same molecule, the IC50 (HEPG2TOX_HILL_SLOPE 6.78, HEPG2TOX_R_SQUARED 0.0669, read-out: LUCIFERASE INFECTION ASSAY - IC50) was more than 10 µM.
As for `Cc1ccc(O)c(C(=O)c2c[nH]c(-c3nc4ccccc4[nH]3)c2)c1`, the IC90 was more than 10 µM. The IC50 (HEPG2TOX_HILL_SLOPE 1.19, HEPG2TOX_R_SQUARED 0.817, PBLUC_HILL_SLOPE 1.99, PBLUC_R_SQUARED 0.294, read-out: LUCIFERASE INFECTION ASSAY - IC50) turned out to be 3.74 µM.
On to `COc1ncccc1-c1cc2c(cn1)nc(Nc1cccc(C(F)(F)F)c1)n2C`, for which the IC90 is more than 10 µM. For the setting “PBLUC_HILL_SLOPE 1.56, PBLUC_R_SQUARED 0.782, read-out: LUCIFERASE INFECTION ASSAY - IC50”, the IC50 is 2.89 µM.
On to `Nc1ncc(-c2ccc(F)c(Cl)c2)cc1-c1cccc(O)c1`, for which the IC90 was more than 10.5 µM. Besides, under setting [1], the half-maximal inhibitory concentration (IC50) was more than 10.5 µM.
Turning to `CCOC(=O)c1sc(N)c(C#N)c1COC(=O)c1c(CC)noc1C`, the 90% effect concentration (IC90) came to 0.249 µM. Besides, under setting [1], the concentration for half-maximal inhibition (IC50) turned out to be 0.244 µM.
For the molecule `Cc1nnsc1-c1onc(C)c1C(=O)NC(=O)Nc1cc(Cl)cc(Cl)c1`, the IC90 turned out to be 3.02 µM. In addition, under “HEPG2TOX_HILL_SLOPE 1.43, HEPG2TOX_R_SQUARED 0.987, PBLUC_HILL_SLOPE 8.7, PBLUC_R_SQUARED 0.518, read-out: LUCIFERASE INFECTION ASSAY - IC50”, the IC50 came to 2.34 µM.
Take `COc1cc(OC)cc(C(=O)Nc2nc3ccc(C)cn3c2C(=O)NC2CCCC2)c1`: the concentration for an effect of 90% (IC90) worked out at 6.19 µM. In addition, for the setting “HEPG2TOX_HILL_SLOPE 8.61, HEPG2TOX_R_SQUARED 0.625, PBLUC_HILL_SLOPE 3.28, PBLUC_R_SQUARED 0.589, read-out: LUCIFERASE INFECTION ASSAY - IC50”, the 50% inhibitory concentration (IC50) came to 3.16 µM.
With `CC(Sc1nc(-c2ccccc2)c(-c2ccccc2)o1)C(=O)NCc1ccco1` (configuration not stated), the 90% effect concentration (IC90) is 8.62 µM. Moreover, the 50% inhibitory concentration (IC50) (HEPG2TOX_HILL_SLOPE 0.891, HEPG2TOX_R_SQUARED 0.604, PBLUC_HILL_SLOPE 2.26, 2.77, PBLUC_R_SQUARED 0.745, 0.857, read-out: LUCIFERASE INFECTION ASSAY - IC50) amounted to 5.29 µM.
As to `NC(c1csc(Nc2ccc(C(F)(F)F)cn2)n1)C1CCCCC1` (configuration not stated), the 90% effect concentration (IC90) is more than 9.26 µM. Moreover, where the note is “PBLUC_HILL_SLOPE 4.28, PBLUC_R_SQUARED 0.42, read-out: LUCIFERASE INFECTION ASSAY - IC50”, the IC50 turned out to be 7.59 µM.
`Oc1cccc(-c2cnc3cnc(-c4ccccc4Cl)cn23)c1`: the IC90 is more than 10.3 µM. For the same molecule, the IC50 (HEPG2TOX_HILL_SLOPE 2.92, HEPG2TOX_R_SQUARED 0.924, PBLUC_HILL_SLOPE 1.11, PBLUC_R_SQUARED 0.809, read-out: LUCIFERASE INFECTION ASSAY - IC50) turned out to be 1.72 µM.
For the molecule `Cn1cc(-c2cn3c(-c4cccc(OC(F)(F)F)c4)cnc3cn2)cn1`, the IC90 was more than 9.18 µM. Moreover, the IC50 (PBLUC_HILL_SLOPE 3.72, PBLUC_R_SQUARED 0.643, read-out: LUCIFERASE INFECTION ASSAY - IC50) worked out at 5.44 µM.
With `O=C(NCCNc1ccc2ccccc2c1)c1cc2ccccc2nc1Cl`, the IC90 was more than 10 µM. In addition, under “PBLUC_HILL_SLOPE 1.17, 2.29, PBLUC_R_SQUARED 0.341, 0.725, read-out: LUCIFERASE INFECTION ASSAY - IC50”, the IC50 stood at 5.88 µM.
On to `OCCN1N=C2c3cc(Cl)ccc3SCC2C1c1ccc(Cl)cc1` (configuration not stated), for which the IC90 was more than 8.7 µM. For the same molecule, the IC50 (PBLUC_HILL_SLOPE 3.12, PBLUC_R_SQUARED 0.594, read-out: LUCIFERASE INFECTION ASSAY - IC50) came to 7.08 µM.
For `Cc1nnsc1C(=O)Nc1cc(C(F)(F)F)cc(C(F)(F)F)c1`, the IC90 turned out to be 1.4 µM. Besides, the concentration for half-maximal inhibition (IC50) (HEPG2TOX_HILL_SLOPE 1.48, HEPG2TOX_R_SQUARED 0.897, PBLUC_HILL_SLOPE 8.57, PBLUC_R_SQUARED 0.681, read-out: LUCIFERASE INFECTION ASSAY - IC50) is 1.08 µM.
`O=[N+]([O-])c1ccc(Oc2c(Cl)cc(Cl)cc2Cl)cc1`: the IC90 was more than 10.4 µM. Further, the half-maximal inhibitory concentration (IC50) (PBLUC_HILL_SLOPE 1.34, PBLUC_R_SQUARED 0.555, read-out: LUCIFERASE INFECTION ASSAY - IC50) stood at 3.75 µM.
Turning to `COc1ccc(-c2cnc3cnc(-c4ccc(N5CCN(C)CC5)nc4)cn23)cc1`, the 90% effect concentration (IC90) was more than 8.24 µM. Moreover, the IC50 (PBLUC_HILL_SLOPE 3.44, PBLUC_R_SQUARED 0.167, read-out: LUCIFERASE INFECTION ASSAY - IC50) was determined as 6.29 µM.
For the molecule `COc1cc(NC(=O)Nc2ccc3nc(Cc4ccccc4)nn3c2)cc(OC)c1OC`, the IC90 amounted to 4.31 µM. The half-inhibitory concentration (IC50) (PBLUC_HILL_SLOPE 20.6, PBLUC_R_SQUARED 0.32, read-out: LUCIFERASE INFECTION ASSAY - IC50) turned out to be 3.87 µM.
As to `COc1ccc(S(=O)(=O)Nc2cc(Sc3ccc(C)cc3)c(O)c3ccccc23)cc1`, the IC90 is more than 10 µM. Further, the IC50 (PBLUC_HILL_SLOPE 2.53, PBLUC_R_SQUARED 0.459, read-out: LUCIFERASE INFECTION ASSAY - IC50) came to 6.71 µM.
Take `CN(Cc1ccc(N2CCCCC2)cc1)C(=O)c1cc(-c2cccnc2)nc2ccccc12`: the concentration for an effect of 90% (IC90) was more than 10 µM. For the setting “HEPG2TOX_HILL_SLOPE 0.393, HEPG2TOX_R_SQUARED 0.924, PBLUC_HILL_SLOPE 2.39, PBLUC_R_SQUARED 0.338, read-out: LUCIFERASE INFECTION ASSAY - IC50”, the IC50 is 4.33 µM.
As to `Cc1c(-c2ccccc2)oc2c(C(=O)N3CCc4ccccc4C3)cccc2c1=O`, the IC90 is more than 10 µM. Where the note is “PBLUC_HILL_SLOPE 6.24, PBLUC_R_SQUARED 0.0221, read-out: LUCIFERASE INFECTION ASSAY - IC50”, the IC50 was more than 10 µM.
`CNc1nc2cnc(Nc3cc(C(F)(F)F)ccc3F)cc2n1-c1ccccc1`: the IC90 is more than 10 µM. For the same molecule, the half-inhibitory concentration (IC50) (PBLUC_HILL_SLOPE 2.9, PBLUC_R_SQUARED 0.508, read-out: LUCIFERASE INFECTION ASSAY - IC50) worked out at 6.14 µM.
For the molecule `O=C(NCCN1C(=O)S/C(=C\c2ccccc2Cl)C1=O)c1ccc(Br)o1`, the 90% effect concentration (IC90) is more than 10 µM. Further, under setting [1], the IC50 was more than 10 µM.
With `Cc1nnc(Sc2ncnc3scc(-c4ccccc4)c23)s1`, the IC90 was determined as 6.88 µM. Moreover, the half-inhibitory concentration (IC50) (HEPG2TOX_HILL_SLOPE 11.3, HEPG2TOX_R_SQUARED 0.507, PBLUC_HILL_SLOPE 5.22, PBLUC_R_SQUARED 0.122, read-out: LUCIFERASE INFECTION ASSAY - IC50) stood at 4.52 µM.
